Results from paper PMC8359193, “Summary of reference chemicals evaluated by the fish short‐term reproduction assay, OECD TG229, using Japanese Medaka, Oryzias latipes” (Journal of Applied Toxicology, 2021).
Entries after “also recorded” stand apart in the source; their conditions may differ. Read-outs that look alike come from different tables or passages of the source.

Key:
medaka ARβ (mARβ) [1] = target: T1, medaka ARβ (mARβ) (Oryzias latipes, UniProt D1MV73); assay: Medaka ARβ reporter gene assay (RGA), agonist assay, HepG2 cells; format: cell-based, Japanese medaka (Oryzias latipes); details: for EC50: mARβ RGA agonist assay, ND = no significant response even at the highest assay concentration (in parentheses)
T1 sequence (D1MV73 entry or part of it): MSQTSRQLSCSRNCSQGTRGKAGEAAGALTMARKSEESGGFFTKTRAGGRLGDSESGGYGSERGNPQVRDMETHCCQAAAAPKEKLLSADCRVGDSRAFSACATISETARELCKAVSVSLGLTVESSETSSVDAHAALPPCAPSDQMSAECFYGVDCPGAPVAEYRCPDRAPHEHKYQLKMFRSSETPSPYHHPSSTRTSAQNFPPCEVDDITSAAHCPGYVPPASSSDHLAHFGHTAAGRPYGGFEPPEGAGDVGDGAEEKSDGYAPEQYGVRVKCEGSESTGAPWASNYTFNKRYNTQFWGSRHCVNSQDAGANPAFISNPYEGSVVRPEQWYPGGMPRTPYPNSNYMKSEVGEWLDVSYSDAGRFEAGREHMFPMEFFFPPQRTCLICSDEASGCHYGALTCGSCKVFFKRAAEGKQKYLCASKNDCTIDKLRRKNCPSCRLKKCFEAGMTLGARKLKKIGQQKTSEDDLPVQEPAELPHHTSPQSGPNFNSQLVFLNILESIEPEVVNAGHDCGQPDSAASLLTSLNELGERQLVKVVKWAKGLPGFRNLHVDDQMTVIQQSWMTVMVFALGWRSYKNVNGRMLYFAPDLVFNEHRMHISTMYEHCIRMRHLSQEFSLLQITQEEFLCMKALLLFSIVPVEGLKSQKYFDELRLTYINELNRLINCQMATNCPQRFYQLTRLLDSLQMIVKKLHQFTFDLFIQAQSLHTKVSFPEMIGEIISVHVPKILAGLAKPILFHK
Method: To support interpretation of the biological effects observed in the FSTRA studies, in vitro RGAs using medaka Esr1 (mEsr1) and medaka ARβ (mARβ) were performed for the 16 test chemicals.
For the assays, human liver cancer cell line, HepG2, was used as the host cells, and mARβ/pcDNA3.1, MMTV‐Luc, and pRL‐TK‐Rlu were used as mARβ expression vector, reporter vector, and internal control vector, respectively.
(§1) Effect concentrations, that is, EC50 (a half maximal effective concentration) in the agonist assay and IC50 (a half maximal inhibitory concentration) in the antagonist assay, were estimated by nonlinear curve fitting (e.g., three parameters logistic regression curve) using GraphPad Prism (GraphPad Software Inc., La Jolla, CA, USA).

Japanese medaka [2] = details: cited from earlier work
medaka Esr1 (mEsr1) = target: T2, medaka Esr1 (mEsr1) (Oryzias latipes, UniProt P50241); assay: cell-based; format: cell-based, Japanese medaka (Oryzias latipes)
T2 construct: expressed in transfected cells; host or cells: HEK293 (human embryonic kidney cells), transient transfection with FuGENE HD
T2 sequence (P50241 1-620): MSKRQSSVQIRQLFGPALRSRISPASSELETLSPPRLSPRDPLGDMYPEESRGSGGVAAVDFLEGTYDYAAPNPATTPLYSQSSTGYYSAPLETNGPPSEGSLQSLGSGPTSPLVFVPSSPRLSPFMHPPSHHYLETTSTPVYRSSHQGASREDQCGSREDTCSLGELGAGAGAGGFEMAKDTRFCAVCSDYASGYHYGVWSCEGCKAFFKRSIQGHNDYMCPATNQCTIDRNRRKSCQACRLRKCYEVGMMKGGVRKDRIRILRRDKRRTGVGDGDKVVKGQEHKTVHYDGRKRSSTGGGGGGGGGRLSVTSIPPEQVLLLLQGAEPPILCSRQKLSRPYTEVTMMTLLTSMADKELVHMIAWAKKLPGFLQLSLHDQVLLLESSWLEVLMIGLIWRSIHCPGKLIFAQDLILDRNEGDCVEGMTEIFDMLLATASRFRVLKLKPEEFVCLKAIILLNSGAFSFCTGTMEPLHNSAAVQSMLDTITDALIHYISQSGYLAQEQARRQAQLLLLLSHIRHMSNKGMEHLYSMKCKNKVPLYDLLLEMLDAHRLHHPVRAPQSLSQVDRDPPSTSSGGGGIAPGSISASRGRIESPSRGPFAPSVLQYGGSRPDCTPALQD
Method: (§2) To support interpretation of the biological effects observed in the FSTRA studies, in vitro RGAs using medaka Esr1 (mEsr1) and medaka ARβ (mARβ) were performed for the 16 test chemicals. In the present study, Esr1 and ARβ, which are ancestral subtypes among Esrs and ARs in Japanese medaka, were selected based on the phylogenetical analyses of Esr and AR with each receptor RGAs (Ogino et al., [2016], [2018]; Tohyama et al., [2015]).
The mEsr1 RGA consisting of agonist and antagonist assays were performed according to the methods previously reported (Katsu et al., [2010]; Lange et al., [2012]; Miyagawa et al., [2014]). Briefly, human embryonic kidney cells 293 (HEK293), precultured, were seeded in 96‐well plates at 15,000 cells/well with 200 μl of culture medium, phenol‐red‐free Dulbecco's Modified Eagle's medium (ThermoFisher Scientific K.K., Tokyo, Japan) supplemented with 2‐mM L‐glutamine and 10% charcoal/dextran‐treated fetal bovine serum (Hyclone, UT, USA), and then incubated for 24 h in 5% CO2 at 37°C. After the 24‐h incubation, 20 μl of test medium containing 40 ng of medaka Esr1/pcDNA3.1, 80 ng of ERE‐TK‐Luc, and 20 ng of pRL‐TK‐Rlu and 1.2 μL of transfection reagent FuGENE HD (Promega, WI, USA) were added into each well. The assay plates were incubated for another 4 h in order to transfect the three vectors into the HEK293 cells. After the vectors were successfully transfected, in agonist assay, 24 μl of concentrated test chemical solution was applied to the test medium in the plate wells. […] After chemical treatment for 40 h, luciferase activity of the cells was measured, and the promoter activity was calculated as firefly (Photinus pyralis)‐/sea pansy (Renilla reniformis)‐luciferase activity in each well. The luciferase activities were quantified by a chemiluminescence assay with Dual‐Luciferase Reporter Assay System (Promega) in accordance with the manufacturer's instructions, and luminescence intensity of firefly and sea pansy luciferin was measured using a luminometer, TriStar LB941 (Berthold Technology, Oak Ridge, TN, USA).
as §1

[3] = P4 concentration in test solutions with and without UV irradiation (biodegradation check); format: physicochemical
medaka ARβ (mARβ) [4] = target: T1, medaka ARβ (mARβ); assay: Medaka ARβ reporter gene assay (RGA), antagonist assay with 50 nM 11KT, HepG2 cells; format: cell-based, Japanese medaka (Oryzias latipes); details: mARβ RGA antagonist assay, 50 nM 11KT-induced activity; ND = no significant response even at the highest assay concentration (in parentheses)
Method: as §2
The mARβ RGA in which the agonist and the antagonist assays were performed as same as the mEsr1 RGA was carried out according to the methods previously reported by Lange et al. ([2015]). For the assays, human liver cancer cell line, HepG2, was used as the host cells, and mARβ/pcDNA3.1, MMTV‐Luc, and pRL‐TK‐Rlu were used as mARβ expression vector, reporter vector, and internal control vector, respectively. Other materials and methods, for example, operating procedure, reagents, and incubation conditions, were almost the same as the mEsr1 RGA previously described beside that 11KT (Sigma‐Aldrich, purity 99.0%), a main AR ligand in fish, was competitively spiked at 50 nM into the test medium with test chemicals in antagonist assay. In the agonist and the antagonist assays, 11KT and 2‐hydroxyflutamide (2HFLT; Sigma‐Aldrich, purity 98.5%) were used as positive controls, respectively.
as §1

Japanese medaka [5] = details: cited from earlier work; remark: listed apart in the source
[6] = mEsr1 RGA agonist assay, ND = no significant response even at the highest assay concentration (in parentheses), read-out: Agonist assay, EC50, Medaka Esr1
[7] = F0 generation, FLCT, ref Seki et al. (2003)

In the case of `C[C@]12CCC(=O)C=C1CC[C@@H]1[C@@H]2CC[C@@]2(C)[C@H]1CC[C@]2(C)O` [MT, 17α‐methyltestosterone], the EC50 (medaka ARβ (mARβ) [1]) is listed as 0.12 nM and the “concentration causing induction of SSC in females and reduction of reproduction” value (Japanese medaka [2]; long-term testing, ref Seki et al., 2004) is listed as 9.98 pg/mL.

For `CC(=O)[C@H]1CC[C@H]2[C@@H]3CCC4=CC(=O)CC[C@]4(C)[C@H]3CC[C@]12C` [P4, Progesterone], the EC50 (medaka Esr1 (mEsr1)) was > 10000 nM, the “mARβ agonist activity (in words)” value (medaka ARβ (mARβ) [1]) was “potent AR agonists” and the “P4 concentration, % of the nominal” value ([3]; test solution after 24-h UV treatment) was “more than 80 % of the nominal”. For the same compound, the “P4 concentration, % of the nominal” value ([3]; test solution without UV treatment) was “less than 20 % of the nominal”.

For `CCCCCCCCCCCCOS(=O)(=O)[O-].[Na+]` [SDS, Sodium dodecyl sulfate], the “mEsr1 agonist activity (in words)” value (medaka Esr1 (mEsr1); highest concentration 100 μM) was “could not be determined; also recorded: neithEsr agonistic nor antagonistic activity”, the EC50 (medaka Esr1 (mEsr1); [6]) was > 100000 nM and the IC50 (medaka ARβ (mARβ) [4]) was > 100000 nM. For the same compound, the “mARβ agonist activity (in words)” value (medaka ARβ (mARβ) [1]) was “no significant increase in hold activation; also recorded: neithEsr agonistic nor antagonistic activity” and the EC50 (medaka ARβ (mARβ) [1]) was > 100000 nM.

For `C[C@]12C=CC3=C4CCC(=O)C=C4CC[C@H]3[C@@H]1CC[C@@H]2O` [TRB, 17β‐Trenbolone], the “concentration causing reduction of reproduction” value (Japanese medaka [5]; in vivo) is given as 13 pg/mL and the “concentration causing induction of SSC in females” value (Japanese medaka [5]; long-term testing, ref Flynn et al., 2017) is given as 32 ng/L.

In the case of `CCC(C)(C)c1ccc(O)cc1` [PTH, 4‐tert‐Pentylphenol], the EC50 (medaka Esr1 (mEsr1); [6]) is listed as 970 nM, the “LOEC on VTG induction” value (Japanese medaka [2]; [7]) is listed as ≤ 51.1 µg/L and the “LOEC on reproductive impairment” value (Japanese medaka [2]; [7]) is listed as 224 µg/L.

In the case of `C#C[C@]1(O)CC[C@H]2[C@@H]3CCc4cc(O)ccc4[C@H]3CC[C@@]21C` [EE2, 17α‐Ethynylestradiol], the EC50 (medaka Esr1 (mEsr1); [6]) is given as 0.88 nM, the IC50 (medaka ARβ (mARβ) [4]) is given as 140 nM and the “concentration that significantly elevated male VTG and reduced fertility” value (Japanese medaka [2]; F0 generation, FLCT, ref MOE, 2006) is given as 9.26 pg/mL.

In the case of `C#C[C@]1(O)CC[C@H]2[C@@H]3CCC4=CC(=O)CC[C@@H]4[C@H]3CC[C@@]21CC` [LNG, Levonorgestrel], the EC50 (medaka Esr1 (mEsr1); [6]) is reported as 1100 nM and the “mARβ agonist activity (in words)” value (medaka ARβ (mARβ) [1]) is reported as “potent AR agonists”.

`Cc1cc(O)ccc1Cl` [CMP, 4‐Chloro‐3‐methylphenol] showed an EC50 (medaka Esr1 (mEsr1); read-out: Agonist assay, EC50, Medaka Esr1, mEsr1 RGA agonist assay, ND = no significant response even at the highest assay concentration (in parentheses)) of 61000 nM.
